Source: paper PMC10967856, “Mechanistic Insights Revealed by YbtPQ in the Occluded State” (Biomolecules, 2024)

Experiments:
[1] = target: T1, YbtPQ (Escherichia coli, UniProt Q1RAG2+Q1RAG3); settings: YbtPQ-nanodisc; basal ATPase activity, no Km given
T1 construct: gene ybtP

[2] = target: T1, YbtPQ; settings: trapping at 37 °C for 15 min, vanadate 0-20 mM tested (20 mM with 18 mM ATP and 54 mM MgCl2 for the cryo-EM sample); YbtPQ-nanodisc; traps as ADP-Vi

Structure (SMILES): Nc1ncnc2c1ncn2[C@@H]1O[C@H](COP(=O)(O)OP(=O)(O)OP(=O)(O)O)[C@@H](O)[C@H]1O [ATP]
- ATPase activity, malachite green phosphate release [1]: malachite green reacting with the released phosphate group

Structure (SMILES): [O]=[V]([OH])([OH])[OH] [vanadate]
- % drop in ATPase activity after vanadate trapping [2]: ~ 90%
